Source: ChEMBL document CHEMBL1151389, “Antitumor agents 57. The isolation and structural elucidation of microhelenin-E, a new antileukemic nor-pseudoguaianolide, and microhelenin-F from Helenium microcephalum” (1982)
Converted amounts (≈) assume the structure as drawn.

Legend:
P388 = experiment: Antileukemic activity against mouse P388 cells […] in BDF1 mouse at 8 mg/kg; assay type: functional
KB = experiment: Cytotoxicity against human KB cells; assay type: functional; conditions: read-out: ED50 (the source's name)

| Compound | T/C (P388) [%] | EC50 (KB) [µg/mL] |
| --- | --- | --- |
| CC(C)=C1C(=O)O[C@@H]2C[C@@H](C)[C@]3(O)C=CC(=O)[C@@H]3C[C@H]12 [MICROHELENIN E] | 166 | 1.38 (≈ 4.99 µM) |
| CC(C)=C1C(=O)O[C@@H]2C[C@@H](C)[C@@H]3C=CC(=O)[C@]3(O)C[C@H]12 [MICROHELENIN F] | 116 | 11 (≈ 39.8 µM) |
